Data taken from ChEMBL document CHEMBL3507680, “University of Dundee, Gates Library screen for HepG2 cell viability”.

Assay: Human HepG2 cell viability assay in 384 well format
Type: toxicity, cell-based
Parameters: dose 125 nL, time 70.5 hour; cytotoxicity at 70.5 h: concentration not given beside the values
Conditions: HepG2 cells, read-out: Inhibition

Row | Compound | cytotoxicity at 70.5 h [%]
1 | Cc1cc(C(=O)NCC(C)C)c2c(C3CCCN3)noc2n1 (configuration not stated) | -5.52
2 | COc1ccc(-c2nnsc2C(=O)N2CCC(C(N)=O)CC2)cc1 | -13.8
3 | CNC(=O)[C@H]1C[C@@H]2CN(S(=O)(=O)c3ccc(C)c(F)c3)C[C@@H]2N1C | -3.95
4 | CCn1cnnc1CNC(=O)N1CCN(Cc2ccco2)CC1 | 1.5
5 | O=C(N[C@H]1CC[C@H](O)CC1)c1ccc2nc(-c3ccc(F)cc3)cn2c1 | -9.74
6 | CCc1cnc(C)nc1NCCN1CCCCCC1 | -11.6
7 | c1ccc(-c2cc(CN3CCCCCC3c3ccco3)on2)nc1 (configuration not stated) | -4.66
8 | Cc1cc(C(F)(F)F)nc(CNC(=O)CCC2CCCN(C)C2)n1 (configuration not stated) | -6.3
9 | O=C1CCCN1Cc1ncn2c1CN(C(=O)c1cccc(F)c1)CCC2 | -13.4
10 | CCn1nc(C)cc1C(=O)N1C[C@@H]2C[C@@H](c3noc(C)n3)O[C@@H]2C1 | -6.34
11 | Cc1ccc(CN2CCOCC2)cc1NC(=O)c1ccsc1 | -9.12
12 | Cc1cnn(CC2CN(c3nc4ccccc4o3)CCO2)c1 (configuration not stated) | 16.4
13 | CCc1nc2n(n1)CC(NCc1cn(C)nc1-c1cccnc1)CC2 (configuration not stated) | -4.07
14 | CC(C)NC(=O)CCNC(=O)c1cnc(Cc2ccc(F)cc2)s1 | -4.85
15 | CNC(=O)CNC(=O)Nc1cc(-c2ccccc2)ns1 | 29.7
16 | CCOCCn1c(=O)n(Cc2ccc(F)cc2)c2ncc(C(=O)O)cc21 | -4.53
17 | Cc1nc(CN(C)S(=O)(=O)c2ccccc2Br)no1 | -3.75
18 | CN1CC2(CCN(C(=O)CCc3nc4cccnc4n3C)C2)OC1=O (configuration not stated) | 15.3
19 | Cc1cscc1C(=O)Nc1cc(CSCCO)ccn1 | -3.95
20 | c1cnn(CC2CN(Cc3noc(C4CC4)n3)CCO2)c1 (configuration not stated) | -0.284
21 | O=C1CCCCN1CCc1nc(-c2cccnn2)no1 | -2.5
22 | CN(C)c1ncccc1CNC(=O)N1CCCC1c1ccsc1 (configuration not stated) | -16.3
23 | O=C([C@H]1CCCO1)N1CC[C@@H](O)[C@@H]1Cc1ccccc1 | -8.36

Row | Compound | cytotoxicity at 70.5 h [%]
24 | CC(C)c1nc(C2CCCN2CC(=O)N2CCc3ccccc32)no1 (configuration not stated) | -3.85
25 | Cc1cccc(C(C)(C)CNc2cn[nH]c(=O)c2Cl)c1 | 18.4
26 | Cc1csc(N(C)C(=O)C2CC(=O)N(CCc3ccccc3)C2)n1 (configuration not stated) | 4.67
27 | Cc1ncsc1CN1C[C@@H]2CN(S(C)(=O)=O)CCO[C@@H]2C1 | -7.53
28 | Cc1n[nH]cc1CNc1ccc2c(c1)CN(C(=O)OC(C)(C)C)CC2 | -6.16
29 | O=C1CN(Cc2cn(CC3CCCN(C4CCSCC4)C3)nn2)CCN1 (configuration not stated) | 16.1
30 | CC(C)NC1CCN(CCc2ccc3c(c2)CCO3)CC1 | 9.93
31 | Cc1cc(O)cc(C2CCCN2C(=O)c2ccncc2)n1 (configuration not stated) | -5.31
32 | O=C(C[S+]([O-])Cc1c(F)cccc1Cl)N1CCc2sccc2C1 (configuration not stated) | -6.1
33 | COCCN(C)C[C@@H]1CN(C(=O)c2cccc(C(F)(F)F)c2)C[C@@H]1CO | -9.39
34 | CCOc1ccc(NC(=O)N(CCN(C)C)C(C)c2ccncc2)cc1 (configuration not stated) | 13.6
35 | c1cnc2[nH]c(C3CCCC3)c(CN3CCCCC3)c2c1 | -7.43
36 | N#Cc1c(N)nc2c(c1-c1c[nH]nc1C1CCCCC1)CC(N)CC2 (configuration not stated) | 22.4
37 | OC(CNC1CCOCC1)c1ccc(Cl)c(F)c1 (configuration not stated) | 0.212
38 | CCc1nc(CN2CCN(C(=O)Cc3c(C)noc3C)CC2)cs1 | -10.4
39 | CCOCCCNC(=O)c1cc(OC)c2ccoc2c1 | -1.75
40 | Cc1ccc(CN2C[C@@H]3CCCO[C@@H]3[C@H](N(C)Cc3ccco3)C2)s1 | -11
41 | Cc1cc(S(C)(=O)=O)c(C)c(S(=O)(=O)NCC2CCCO2)c1 (configuration not stated) | -16.8
42 | COCCNC(=O)CN1CCCC1c1c(C)nn(C)c1Cl (configuration not stated) | -1.71
43 | COc1ccnc(CN2CCCC(CCc3ccccc3)C2)c1OC (configuration not stated) | 3.51
44 | Cc1ccc(C(=O)NC2CCN(Cc3noc(C(C)(C)C)n3)CC2)s1 | -14.3
45 | CC(=O)N1C[C@@H](c2ccsc2)[C@@H]2CN(Cc3ccccc3)CC[C@@H]21 | -10.8
46 | FC(F)(F)c1nc(NC2CCc3ncnn3C2)c2ccccc2n1 (configuration not stated) | 24.8

Row | Compound | cytotoxicity at 70.5 h [%]
47 | CN(Cc1nnc2n1CCC2)C(=O)Cc1ccc2c(c1)OCCO2 | -4.37
48 | CCc1ccc(C2CC(=O)Nc3n[nH]cc32)o1 (configuration not stated) | 0.796
49 | O=C(O)c1cc2c(nc1-c1ccncc1)CCN(Cc1ccoc1)CC2 | -7.98
50 | Cc1cccc(CN2C(=O)C[C@H]3[C@@H]2CCN3Cc2ccco2)n1 | -11.7
51 | O=C(c1cnn[nH]1)N(CCCO)Cc1cccnc1 | 1.99
52 | O=C(C1CCCC1)N1CCC(Nc2ccncn2)CC1 | -3.92
53 | COCCS(=O)(=O)Nc1ccc(-n2cncn2)c(F)c1 | -8.99
54 | CCCN1C[C@H]2CC[C@@H]1CN(c1nnc(C(C)C)s1)C2 | 27.1
55 | Cc1ocnc1C(=O)N1CCC(c2nccn2Cc2ccncc2)CC1 | -6.78
56 | O=C(C1CC(=O)N(C2CC2)C1)N1CCC(Oc2ccccc2Cl)CC1 (configuration not stated) | 0.0694
57 | COc1cccc(OC)c1C(=O)N1C[C@@H](CN(C)C)[C@@H](CO)C1 | -2.79
58 | CC(C)c1nc2n(n1)CC(NCc1nc(C3CC3)no1)CC2 (configuration not stated) | -1.86
59 | COc1ccc(CN2CCc3[nH]nc(C(=O)N(C)C)c3C2)cc1 | -8.01
60 | CCO[C@H]1CCN(S(=O)(=O)c2cn(C)cn2)[C@H]1Cc1ccccc1 | -1.16
61 | CCn1cc2c(n1)C(COC)CN(C(=O)COc1ccccc1)C2 (configuration not stated) | 6.15
62 | CCC(CC)NC(=O)c1ncn2c1CN(CC)S(=O)(=O)c1ccccc1-2 | -12.8
63 | CN(C)C(=O)CN1CCN(c2ccnc3c(F)ccc(F)c23)CC1 | -4.33
64 | COCCCn1cnnc1CNC(=O)c1[nH]c2c(C)cc(C)cc2c1C | -6.04
65 | CCOc1ccccc1-n1c(C2CC(=O)N(C)C2)n[nH]c1=O (configuration not stated) | -25.4
66 | Cn1ccnc1CN1CCC2(CC(=O)N(c3cncnc3)C2)C1 (configuration not stated) | -14.3
67 | CCCn1c(SCC(N)=O)nnc1-c1csc2c1CCCC2 | -9.81
68 | CC(=O)N[C@@H]1CN(S(=O)(=O)Cc2ccccc2)C[C@H]1C(C)C | -0.553
69 | Cc1nc(Cn2cncc(Br)c2=O)no1 | 6.27

Row | Compound | cytotoxicity at 70.5 h [%]
70 | COc1ccccc1C(=O)NCCCN1CCCC1C(=O)N(C)C (configuration not stated) | -14.3
71 | O=C(NCC1(c2ccc(F)cc2)CCC1)N1CCC2(CCOCC2)C1 | 7.66
72 | COC(=O)[C@H]1C[C@@H](O)CCN1S(=O)(=O)c1c(C)cc(OC)c(C)c1C | 27
73 | COCCn1ccnc1C1CCCN(C(=O)CSCC2CC2)C1 (configuration not stated) | -3.02
74 | Cc1cc(CN2CCN(C(=O)C(C(C)C)n3cncn3)CC2)on1 (configuration not stated) | -10.4
75 | CC(C)Nc1ncnc2c1CCN(C(=O)N1CCOCC1)CC2 | 10.6
76 | Cc1c(S(=O)(=O)NC2CC2)cc2c(C)cc(=O)n3c2c1CCC3 | 0.953
77 | O=C(c1cc(F)ccc1F)C1CCN(C(=O)c2cccnc2O)CC1 | -16.4
78 | Cc1nc(C2CCCN2C(=O)CCc2ccccc2)ncc1C(N)=O (configuration not stated) | -11.8
79 | CSCC(CCO)Nc1nc(C(F)F)nc2ccccc12 (configuration not stated) | -7.1
80 | Cc1cccc2c(CCNC(=O)NCC[S+](C)[O-])c[nH]c12 (configuration not stated) | 0.892
81 | COCCNc1ccc(CC2CCCN(C3CCOCC3)C2)nn1 (configuration not stated) | -4.94
82 | COc1ccc(CS(=O)(=O)CC(=O)NCC2CC2)cc1F | -3.56
83 | CCSc1ccccc1C(=O)NCC1CCN(Cc2ccsc2)CC1 | 2.8
84 | Fc1ccc(CN[C@@H]2COC[C@H]2c2ccc(F)cc2)cc1 | 0.602
85 | CSc1cccc(CN(C)C(=O)C2CC(=O)N(CCN(C)C)C2)c1 (configuration not stated) | 5.8
86 | CNC(=O)C1CC(=O)N(c2cccc(F)c2)C1 (configuration not stated) | -3.04
87 | CCc1ncncc1C(=O)N1CCCN(Cc2ccc(C#N)cc2)CC1 | -10.9
88 | CC(=O)NCc1cncc(C2CCCN2C2CCOCC2)n1 (configuration not stated) | -5.7
89 | CCc1n[nH]c(C(=O)N2CCC3(CCCN(CCOC)C3=O)C2)c1C (configuration not stated) | -9.48
90 | C1CCC(c2nc3c(c(N4CC(N5CCOCC5)C4)n2)CCNCC3)C1 | -8.17
91 | Cc1cccc(OCCC(=O)NC(C)c2nnc3n2CCC3)c1 (configuration not stated) | 2.23
92 | CCOCCS(=O)(=O)N(CC)Cc1ccc(Cl)s1 | -11.4

Row | Compound | cytotoxicity at 70.5 h [%]
93 | COCCn1cc(C(=O)N2CCCC2c2ccc(F)cc2)ccc1=O (configuration not stated) | -1.67
94 | COc1cccc(CC2CCCN2CCCO)c1 (configuration not stated) | -2.11
95 | CCCNC(=O)c1nc2c(o1)CN(C(C)=O)C2 | -9.4
96 | CCn1ccc2ccc(CN3CCCC3c3nc(C(C)C)no3)cc21 (configuration not stated) | -10.7
97 | O=C(c1ccc2cccnc2n1)N(Cc1ccsc1)CC1CCCO1 (configuration not stated) | -12.4
98 | COc1cc(C(=O)NS(=O)(=O)c2cccc(C#N)c2)cc(OC)c1Br | -6.73
99 | Cc1ccccc1C1(C(=O)NCCN(C(C)C)C(C)C)CCOCC1 | -10
100 | COCCC(=O)N1CCN(CC(C)C)c2nc(C)ccc2C1 | -4
101 | O=C1CN(C(=O)c2cc(-c3ccco3)nc3c(Cl)cccc23)CCN1 | 9.84
102 | Cc1ccccc1CC(=O)NCc1cnc(CC2CCN(C)CC2)cn1 | -4.57
103 | CC(C)CCN(C(=O)c1ccc(-n2ncc(C#N)c2N)cc1)C1CC1 | -6.84
104 | CC(Cn1cncn1)NC(=O)Nc1ccc(F)cc1OCC1CC1 (configuration not stated) | -9.35
105 | N#Cc1ccnc(N2CCN(CC(O)c3ccc(F)cc3F)CC2)c1 (configuration not stated) | -3.3
106 | O=C(N1CCCC1)C12CC(CN1Cc1nccs1)C2 | -9.99
107 | C[C@@H](O)CNC(=O)c1nc(CC(=O)Nc2cccc(C(F)(F)F)c2)no1 | -23.7
108 | OC[C@H]1CN(Cc2c(Cl)cccc2Cl)C[C@H]1CN1CCCCC1 | 7.58
109 | Cn1cnnc1C1CCCN(c2nc3ccccc3o2)C1 (configuration not stated) | 0.708
110 | CN(C(=O)CCc1ccsc1)S(C)(=O)=O | 6.34
111 | CC(OCC1CC1)C(=O)N1CCCN(c2cccnn2)CC1 (configuration not stated) | -5.5
112 | CCCN1CCCC2(CCN(S(=O)(=O)N3CCC(OC)CC3)C2)C1=O (configuration not stated) | -1.84
